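Five concentrations, 48 hours, 96-well plates. GI50 = concentration required for 50% inhibition of growth. TGI marks complete inhibition of growth.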
Columns and labels:
Experiment in all cases: inhibition of tumour cell growth, NCI panel, 48 h
SF-268 CNS = tested on: SF-268 CNS
SNB-75 CNS = tested on: SNB-75 CNS
HOP-92 NSCLC = tested on: HOP-92 NSCLC
786-0 renal = tested on: 786-0 renal
MOLT-4 leukemia = tested on: MOLT-4 leukemia
SR leukemia = tested on: SR leukemia
CAKI-1 renal = tested on: CAKI-1 renal
OVCAR-3 ovarian = tested on: OVCAR-3 ovarian
OVCAR-4 ovarian = tested on: OVCAR-4 ovarian
BT-549 breast = tested on: BT-549 breast
RXF 393 renal = tested on: RXF 393 renal
SK-OV-3 ovarian = tested on: SK-OV-3 ovarian
NCI-H23 lung = tested on: NCI-H23 lung
SW-620 colon = tested on: SW-620 colon
OVCAR-5 ovarian = tested on: OVCAR-5 ovarian
NCI-H522 lung = tested on: NCI-H522 lung
NCI-H226 lung = tested on: NCI-H226 lung
RPMI-8226 leukemia = tested on: RPMI-8226 leukemia
UO-31 renal = tested on: UO-31 renal
LOX IMVI melanoma = tested on: LOX IMVI melanoma
UACC-257 melanoma = tested on: UACC-257 melanoma
M14 melanoma = tested on: M14 melanoma
TK-10 renal = tested on: TK-10 renal
HCC-2998 colon = tested on: HCC-2998 colon
SF-539 CNS = tested on: SF-539 CNS
U251 CNS = tested on: U251 CNS
K-562 leukemia = tested on: K-562 leukemia
HL-60(TB) leukemia = tested on: HL-60(TB) leukemia
A549 NSCLC = tested on: A549 NSCLC
ACHN renal = tested on: ACHN renal
SN12C renal = tested on: SN12C renal
HS 578T breast = tested on: HS 578T breast
CCRF-CEM leukemia = tested on: CCRF-CEM leukemia
PC-3 prostate = tested on: PC-3 prostate
COLO 205 colon = tested on: COLO 205 colon
T-47D breast = tested on: T-47D breast
KM12 colon = tested on: KM12 colon
SK-MEL-2 melanoma = tested on: SK-MEL-2 melanoma
IGROV1 ovarian = tested on: IGROV1 ovarian
SK-MEL-28 melanoma = tested on: SK-MEL-28 melanoma
MALME-3M melanoma = tested on: MALME-3M melanoma
UACC-62 melanoma = tested on: UACC-62 melanoma
NCI-H460 lung = tested on: NCI-H460 lung
MCF7 breast = tested on: MCF7 breast
HOP-62 NSCLC = tested on: HOP-62 NSCLC
MDA-MB-435 = tested on: MDA-MB-435
EKVX NSCLC = tested on: EKVX NSCLC
OVCAR-8 ovarian = tested on: OVCAR-8 ovarian
HCT-15 colon = tested on: HCT-15 colon
MDA-MB-231 breast = tested on: MDA-MB-231 breast
DU-145 prostate = tested on: DU-145 prostate
HT29 colon = tested on: HT29 colon
SNB-19 CNS = tested on: SNB-19 CNS
SF-295 CNS = tested on: SF-295 CNS
NCI/ADR-RES ovarian = tested on: NCI/ADR-RES ovarian
SK-MEL-5 melanoma = tested on: SK-MEL-5 melanoma

Structure (SMILES): O=c1[nH]c2c3ccncc3cc(-c3cccc(Cl)c3)c2c2cnccc12
- GI50 (SF-268 CNS): 20.8 µM
- TGI (SF-268 CNS): > 100 µM
- GI50 (SNB-75 CNS): 17.7 µM
- TGI (SNB-75 CNS): 89.7 µM
- GI50 (HOP-92 NSCLC): 69.5 µM
- TGI (HOP-92 NSCLC): > 100 µM
- GI50 (786-0 renal): 18.8 µM
- TGI (786-0 renal): 79.5 µM
- GI50 (MOLT-4 leukemia): > 100 µM
- TGI (MOLT-4 leukemia): > 100 µM
- GI50 (SR leukemia): 0.442 µM
- TGI (SR leukemia): > 100 µM
- GI50 (CAKI-1 renal): > 100 µM
- TGI (CAKI-1 renal): > 100 µM
- GI50 (OVCAR-3 ovarian): 3.7 µM
- TGI (OVCAR-3 ovarian): > 100 µM
- GI50 (OVCAR-4 ovarian): > 100 µM
- TGI (OVCAR-4 ovarian): > 100 µM
- GI50 (BT-549 breast): 7.94 µM
- TGI (BT-549 breast): > 100 µM
- GI50 (RXF 393 renal): 0.737 µM
- TGI (RXF 393 renal): 52.3 µM
- GI50 (SK-OV-3 ovarian): 24.7 µM
- TGI (SK-OV-3 ovarian): > 100 µM
- GI50 (NCI-H23 lung): 12.9 µM
- TGI (NCI-H23 lung): > 100 µM
- GI50 (SW-620 colon): > 100 µM
- TGI (SW-620 colon): > 100 µM
- GI50 (OVCAR-5 ovarian): > 100 µM
- TGI (OVCAR-5 ovarian): > 100 µM
- GI50 (NCI-H522 lung): 30.4 µM
- TGI (NCI-H522 lung): > 100 µM
- GI50 (NCI-H226 lung): 73.8 µM
- TGI (NCI-H226 lung): > 100 µM
- GI50 (RPMI-8226 leukemia): > 100 µM
- TGI (RPMI-8226 leukemia): > 100 µM
- GI50 (UO-31 renal): > 100 µM
- TGI (UO-31 renal): > 100 µM
- GI50 (LOX IMVI melanoma): 2.04 µM
- TGI (LOX IMVI melanoma): > 100 µM
- GI50 (UACC-257 melanoma): > 100 µM
- TGI (UACC-257 melanoma): > 100 µM
- GI50 (M14 melanoma): > 100 µM
- TGI (M14 melanoma): > 100 µM
- GI50 (TK-10 renal): 40.2 µM
- TGI (TK-10 renal): > 100 µM
- GI50 (HCC-2998 colon): > 100 µM
- TGI (HCC-2998 colon): > 100 µM
- GI50 (SF-539 CNS): 19.6 µM
- TGI (SF-539 CNS): > 100 µM
- GI50 (U251 CNS): 4.52 µM
- TGI (U251 CNS): > 100 µM
- GI50 (K-562 leukemia): > 100 µM
- TGI (K-562 leukemia): > 100 µM
- GI50 (HL-60(TB) leukemia): > 100 µM
- TGI (HL-60(TB) leukemia): > 100 µM
- GI50 (A549 NSCLC): > 100 µM
- TGI (A549 NSCLC): > 100 µM
- GI50 (ACHN renal): 1.91 µM
- TGI (ACHN renal): > 100 µM
- GI50 (SN12C renal): 84.2 µM
- TGI (SN12C renal): > 100 µM
- GI50 (HS 578T breast): 28.8 µM
- TGI (HS 578T breast): > 100 µM
- GI50 (CCRF-CEM leukemia): > 100 µM
- TGI (CCRF-CEM leukemia): > 100 µM
- GI50 (PC-3 prostate): > 100 µM
- TGI (PC-3 prostate): > 100 µM
- GI50 (COLO 205 colon): > 100 µM
- TGI (COLO 205 colon): > 100 µM
- GI50 (T-47D breast): > 100 µM
- TGI (T-47D breast): > 100 µM
- GI50 (KM12 colon): > 100 µM
- TGI (KM12 colon): > 100 µM
- GI50 (SK-MEL-2 melanoma): 47.9 µM
- TGI (SK-MEL-2 melanoma): > 100 µM
- GI50 (IGROV1 ovarian): 72.2 µM
- TGI (IGROV1 ovarian): > 100 µM
- GI50 (SK-MEL-28 melanoma): > 100 µM
- TGI (SK-MEL-28 melanoma): > 100 µM
- GI50 (MALME-3M melanoma): > 100 µM
- TGI (MALME-3M melanoma): > 100 µM
- GI50 (UACC-62 melanoma): 44.3 µM
- TGI (UACC-62 melanoma): > 100 µM
- GI50 (NCI-H460 lung): > 100 µM
- TGI (NCI-H460 lung): > 100 µM
- GI50 (MCF7 breast): > 100 µM
- TGI (MCF7 breast): > 100 µM
- GI50 (HOP-62 NSCLC): 27.9 µM
- TGI (HOP-62 NSCLC): 91.5 µM
- GI50 (MDA-MB-435): > 100 µM
- TGI (MDA-MB-435): > 100 µM
- GI50 (EKVX NSCLC): > 100 µM
- TGI (EKVX NSCLC): > 100 µM
- GI50 (OVCAR-8 ovarian): 11.7 µM
- TGI (OVCAR-8 ovarian): > 100 µM
- GI50 (HCT-15 colon): > 100 µM
- TGI (HCT-15 colon): > 100 µM
- GI50 (MDA-MB-231 breast): 4.71 µM
- TGI (MDA-MB-231 breast): > 100 µM
- GI50 (DU-145 prostate): > 100 µM
- TGI (DU-145 prostate): > 100 µM
- GI50 (HT29 colon): > 100 µM
- TGI (HT29 colon): > 100 µM
- GI50 (SNB-19 CNS): 25.6 µM
- TGI (SNB-19 CNS): > 100 µM
- GI50 (SF-295 CNS): 34 µM
- TGI (SF-295 CNS): > 100 µM
- GI50 (NCI/ADR-RES ovarian): 39.9 µM
- TGI (NCI/ADR-RES ovarian): > 100 µM
- GI50 (SK-MEL-5 melanoma): > 100 µM
- TGI (SK-MEL-5 melanoma): > 100 µM
